Measured values reported in patent publication US20230295152A1 (SENDA BIOSCIENCES, INC., priority 2019, published 2023).
Read-outs that look alike come from different tables or passages of the source.

Experiments:
[1] = Liver Microsome Stability Assay, human; assay type: in vitro ADME; conditions: human liver microsomes
Protocol: Two separate experiments were performed as follows.
With Cofactors (NADPH): 25 μL of 10 mM NADPH was added to the incubations. The final concentrations of microsomes and NADPH were 0.5 mg/mL and 1 mM, respectively. The final concentration of microsomes was 0.5 mg/mL. The mixture was pre-warmed at 37° C. for 10 minutes. The reaction was started with the addition of 2.5 μL of 100 μM control compound or test compound solutions. Verapamil was used as positive control in this study. The final concentration of test compound or control compound was 1 μM. The incubation solution was incubated in water batch at 37° C. Aliquots of 25 μL were taken from the reaction solution at 0.5, 5, 15, 30 and 60 minutes. The reaction was stopped by the addition of 5 volumes of cold acetonitrile with IS (200 nM caffeine and 100 nM tolbutamide). Samples were centrifuged at 3, 220 g for 40 minutes. Aliquot of 100 μL of the supernatant was mixed with 100 μL of ultra-pure H2O and then used for LC-MS/MS analysis.
Data Analysis: All calculations were carried out using Microsoft Excel. Peak areas were determined from extracted ion chromatograms. The slope value, k, was determined by linear regression of the natural logarithm of the remaining percentage of the parent drug vs. incubation time curve.
The in vitro half-life (in vitro t1/2) was determined from the slope value:
Conversion of the in vitro t1/2 (min) into the in vitro intrinsic clearance (in vitro CLint, in μL/min/mg protein) was done using the following equation (mean of duplicate determinations): […]
The calculations of Scaled-up CLint(mL/min/kg), Predicted CLH (mL/min/kg) and EH were done using the following equation:
Scaled-up CLint=(0.693/t1/2)×(1/(microsomal protein concentration(0.5 mg/mL)))×Scaling Factors;Predicted CLH=(QH×Scaled-up CLint×fub)/(QH+Scaled-up CLint×fub);EH=Predicted CLH/QH
where QH is the hepatic blood flow (mL/min/kg) (Table 32), • fub is the fraction of unbound drug in plasma which is assumed to be 1.
“+++” indicates a Clint value less than 10 mL/min/Kg, […] indicates a Clint between 10 and 20 mL/min/Kg, and “+” indicates a Clint above 20 mL/min/Kg.

[2] = Plasma Protein Binding with Ultracentrifugation Method, human; assay type: in vitro ADME; conditions: human plasma, 1.0 μM; read-out: Human plasma protein binding (% bound)
Protocol: (§1) The frozen plasma (stored at −80° C.) was thawed in a 37° C. water bath, followed by centrifugation at 3,220 g for 10 minutes to remove clots. The supernatant was removed into a new tube as the spun plasma. The spun plasma was pre-warmed in a 37° C. water bath for 10 minutes. The stock solutions of test compounds were diluted to 200 μM in DMSO, and then spiked into the plasma. Duplicate samples were prepared. The final concentration of compound was 1.0 μM. The final concentration of organic solvent was 0.5%. Warfarin was used as positive control in the assay. 1.0 mL of the spiked plasma was transferred to a new balance ultracentrifuge tube. Samples were incubated at 37° C., 5% CO2 for 30 minutes. After incubation, the balance ultracentrifuge tubes were centrifuged at 600,000 g for 5.5 hours at 37° C. After centrifugation, 50 μL solution was removed from the center of the ultracentrifuge tubes as the post-ultracentrifugation samples, followed by the addition of 50 μL blank plasma and 400 μL quench solution (acetonitrile containing internal standards (IS, 100 nM Alprazolam, 500 nM Labetalol and 2 μM Ketoprofen)) to precipitate protein and release compounds. Samples were vortexed for 2 minutes, followed by centrifugation at 20,000 g for 15 minutes at room temperature. The supernatant was diluted with ultrapure water and then used for LC-MS/MS analysis. Stability samples was prepared by transferring 50 μL of the spiked plasma to 0.6 mL tubes and incubated at 37° C., 5% CO2 for 0.5 and 6 hours. After incubation, 50 μL PBS (100 mM, pH7.4) and 400 μL quench solution were added to the stability samples. And then stability samples were treated the same way as the post-ultracentrifugation samples. The supernatant was diluted with ultrapure water and then used for LC-MS/MS analysis. 0.5 hour time point samples were also used as no-spun controls. Time 0 samples were prepared by transferring 50 μL spiked plasma to 0.6 mL tubes containing 50 μL PBS, followed by the addition of 400 μL quench solution to precipitate protein and release compound. And then these samples were treated the same way as the post-ultracentrifugation samples. The supernatant was diluted with ultrapure water and then used for LC-MS/MS analysis.
(§2) Data Analysis: All calculations were carried out using Microsoft Excel. The concentrations of test compound in plasma samples and post-ultracentrifugation plasma was determined from peak areas. The percentages of test compound bound was calculated as follows: […]
(§3) “+++” indicates a % bound value less than 50, “++” indicates a % bound value between 50 and 75, and “+” indicates a % bound value above 75.

[3] = Plasma Protein Binding with Ultracentrifugation Method, mouse; assay type: in vitro ADME; conditions: mouse plasma, 1.0 μM; read-out: Mouse plasma protein binding (% bound)
Protocol: as §1, §2, §3

[4] = Hepatocyte Stability Assay, human; assay type: in vitro ADME; conditions: human, plated hepatocytes, plated hepatocyte
[5] = In vivo PK study in male CD1 mice; conditions: mice; for AUC(0-t): read-out: AUCLast Mean; for half-life: read-out: T1/2 Mean (converted); for bioavailability: read-out: Bioavailability
Protocol: The studies were conducted in male Sprague Dawley rats, three rats per group, or male CD1 mice, three mice per group. Compounds were dosed 1.0 mg/Kg i.v. (vehicle ethanol: % PEG400 in deionized water, in proportions suitable for dosing a clear solution) and 3.0 mg/kg or 10 mg/kg p.o. (vehicle: 1% methyl cellulose: 1,500 cP in DI water (w/v)). A11 animals had free access to food and water. Rat i.v. PK time points: Plasma: 0.083, 0.25, 0.5, 1, 2, 4, 8 and 24 h; Rat p.o. PK time points: Plasma: 0.25, 0.5, 1, 2, 4, 8 and 24 h. Mouse i.v. PK time points: Plasma: 0.083, 0.25, 0.5, 1, 2, 4, 8, 24, and 48 h; Mouse p.o. PK time points: Plasma: 0.25, 0.5, 1, 2, 4, 8, 24, and 48 h. Concentrations of compound in the plasma samples were analyzed using a LC-MS/MS method. WinNonlin (Phoenix™, version 6.1) or other similar software was used for pharmacokinetic calculations.

[6] = Pharmaron assay, read-out: Human hepatocyte clearance Plated hepatocyte Pharmaron assay
[7] = male, CD1, mouse, plasma, 1 mg/kg IV
[8] = male, CD1, mouse, plasma, 10 mg/kg PO

| fraction unbound at 30 min, 1 μM [2] | fraction unbound at 30 min, 1 μM [3] | SMILES | Human liver microsome clearance [1] | further results |
| --- | --- | --- | --- | --- |
| – | – | C[C@@H](CO)n1cnc2c(-c3cnn(C)c3)nc(-c3ccc(OC(F)(F)F)cc3)cc2c1=O [Compound 25] | +++ (“+++” indicates a Clint value less than 10 mL/min/Kg) | – |
| < 0.25 | < 0.25 | CC(C)(O)Cn1cnc2c(-c3cccnc3)nc(-c3ccc(C(F)(F)F)cc3)cc2c1=O [Compound 16] | +++ (“+++” indicates a Clint value less than 10 mL/min/Kg) | CLint scaled [4, 6]: < 20 mL/min/kg |
| < 0.25 | < 0.25 | C[C@@H](CO)n1cnc2c(-c3cccnc3)nc(-c3ccc(C(F)(F)F)nc3)cc2c1=O [Compound 12] | +++ (“+++” indicates a Clint value less than 10 mL/min/Kg) | CLint scaled ([4]; Alliance assay, read-out: Human hepatocyte clearance Plated hepatocyte Alliance assay): < 20 mL/min/kg |
| < 0.25 | < 0.25 | Cn1cc(-c2nc(-c3ccc(Cl)cc3)cc3c(=O)n(CC(C)(C)O)cnc23)cn1 [Compound 21] | +++ (“+++” indicates a Clint value less than 10 mL/min/Kg) | – |
| < 0.25 | < 0.25 | CC(C)(O)Cn1cnc2c(-c3cccnc3)nc(-c3ccc(Cl)cc3)cc2c1=O [Compound 18] | +++ (“+++” indicates a Clint value less than 10 mL/min/Kg) | C0 [5, 7]: 333 ng/mL; AUC(0-t) [5, 7]: 6770 ng·h/mL; half-life [5, 7]: 20.7 h; Cmax [5, 8]: 1310 ng/mL; Tmax [5, 8]: 6.67 h; AUC(0-t) [5, 8]: 45800 ng·h/mL; bioavailability [5, 8]: 67.6%; half-life [5, 8]: 23.4 h; CI Mean ([5]; 1 mg/kg IV): 33.7 mL/min/kg; CLint scaled [4, 6]: < 20 mL/min/kg |
| < 0.25 | – | C[C@@H](CO)n1cnc2c(-c3cnn(C)c3)nc(-c3ccc(Cl)cc3)cc2c1=O [Compound 27] | +++ (“+++” indicates a Clint value less than 10 mL/min/Kg) | – |
| < 0.25 | < 0.25 | Cc1ccc(-c2cc3c(=O)n([C@@H](C)CO)cnc3c(-c3cccnc3)n2)cc1 [Compound 17, (S)-3-(1-hydroxypropan-2-yl)-8-(pyridin-3-yl)-6-(p-tolyl)pyrido[3,4-d]pyrimidin-4(3H)-one] | + (“+” indicates a Clint above 20 mL/min/Kg) | C0 [5, 7]: 601 ng/mL; AUC(0-t) [5, 7]: 231 ng·h/mL; half-life [5, 7]: 0.504 h; Cmax [5, 8]: 349 ng/mL; Tmax [5, 8]: 0.417 h; AUC(0-inf) ([5]; male, CD1, mouse, plasma, 10 mg/kg PO, read-out: AUCInf Mean): 519 ng·h/mL; AUC(0-t) [5, 8]: 497 ng·h/mL; bioavailability [5, 8]: 21.6%; half-life [5, 8]: 1.15 h; CI Mean ([5]; 1 mg/kg IV): 1200 mL/min/kg |
| – | – | C[C@@H](CO)n1cnc2c(-c3cccnc3)nc(-c3ccc(C(F)(F)F)cc3)cc2c1=O [Compound 23] | +++ (“+++” indicates a Clint value less than 10 mL/min/Kg) | CLint scaled [4, 6]: < 20 mL/min/kg |
| – | – | C[C@H](n1cnc2c(-c3cccnc3)nc(-c3cccnc3)cc2c1=O)C(C)(C)O [Compound 34] | +++ (“+++” indicates a Clint value less than 10 mL/min/Kg) | – |
| < 0.25 | < 0.25 | C[C@@H](CO)n1cnc2c(-c3cccnc3)nc(-c3ccc(OC(F)(F)F)cc3)cc2c1=O [Compound 22] | +++ (“+++” indicates a Clint value less than 10 mL/min/Kg) | – |

| SMILES | fraction unbound at 30 min, 1 μM [2] | fraction unbound at 30 min, 1 μM [3] | Human liver microsome clearance [1] | further results |
| --- | --- | --- | --- | --- |
| C[C@@H](CO)n1cnc2c(-c3cccc(F)c3)nc(-c3ccc(Cl)cc3)cc2c1=O [Compound 7] | < 0.25 | < 0.25 | +++ (“+++” indicates a Clint value less than 10 mL/min/Kg) | – |
